Article PMC11678873, “Ketoconazole-Fumaric Acid Pharmaceutical Cocrystal: From Formulation Design for Bioavailability Improvement to Biocompatibility Testing and Antifungal Efficacy Evaluation” (International Journal of Molecular Sciences, 2024)

Tests used:
[1] = tested on: BALBc mice; assay: Histopathology of ear sections (MEST); assay type: in vivo
Procedure: (§1) On day one, under anesthesia, all mice received 30 µL/mouse of Freund’s complete adjuvant (Thermo Scientific™, Waltham, MA, USA), subcutaneously, in the right flank and the abdominal fur was carefully shaved, without skin abrasion. Then animals were treated with 100 µL of locally applied solution (abdominal skin) of each tested substance, in a concentration of 200 µg mL^−1 solved in ethanol 70%, daily for the first 6 days. The left ear thickness of each mouse was measured with an electronic caliper (initial value). Each mouse was treated with 50 µL/ear of the same solution on the left ear pinnae on day 7—challenge and on day 14—rechallenge. Ear thickness was measured at 24 h and 48 h after challenge and rechallenge, respectively. Then mice were humanely sacrificed, under anesthesia, and ears were collected for inflammatory markers (IL1α, IL1β and IL6) assessment and histopathology.
(§2) For histopathological examination, the collected samples (liver and ears) were fixed in 10% buffered neutral formalin, embedded in paraffin, cut at 4 micrometer thickness, and stained using the Hematoxylin–Eosin (H&E) method. The slides were examined under a BX51 Olympus microscope, and images were taken with an Olympus UC 30 digital camera (Olympus, Hamburg, Germany) and processed using the Olympus Stream Basic program.

[2] = tested on: BALBc mice; assay: Inflammatory cytokines in treated ear tissue, ELISA (MEST); assay type: in vivo
Procedure: (§3) For the oxidative stress assessment, the level of malondialdehyde, a marker of lipid peroxidation, was measured from lysates of liver samples (in vivo) and cells-BJ and HepG2 (in vitro), using the Malondialdehyde Colorimetric Assay Kit (TBA Method) provided by ElabScience. Tissue sample homogenates (liver and ear) were prepared as previously described by David et al.. […] Inflammatory reaction was assessed by measurement of the tumor necrosis factor α (TNFα) in liver samples, using the rat TNFα ELISA kit from EIAAB. IL1α and β and IL6 measurement from the mice ear lysates were completed by ELISA, using the respective kits from Quantikine ELISA Immunoassay kit. Tissue homogenate samples were treated according to manufacturer’s instructions; readings were performed at 450 nm with correction wavelength set at 540 nm, using an ELISA plate reader (Tecan, Grödig, Austria).
as §1

[3] = tested on: HepG2 hepatocarcinoma cells; assay: Cell viability, MTS assay, HepG2 hepatocarcinoma cells; assay type: cell-based, human; conditions: for cell viability (effect in words): HepG2, 24 h, Figure 4; for IC50: Homo sapiens, HepG2 hepatocarcinoma cells, 24 h exposure, range 0.01–100 µM, MTS
Procedure: (§4) Dermal fibroblasts (BJ-ATCC CRL-2522™) and hepatocarcinoma cells (HepG2-HB-8065, ATCC, Gaithersburg, MD, USA) were employed. Cell culture medium used was Dulbecco modified Eagle medium (DMEM) supplemented with 5% FCS-fetal calf serum, 50 µg mL^−1 gentamycin, and 5 ng mL^−1 amphotericin, all from Biochrom AG (Berlin, Germany). Medium was changed twice a week. For all experiments, a medium with 2% FCS was used. […] The final concentration of DMSO in the solutions added to the cells was lower than 0.05%, without negative viability effects. Viability was measured using the MTS assay CellTiter 96® AQueous Non-Radioactive Cell Proliferation Assay from (Promega Corporation, Madison, WI, USA), as indicated by the producer. […] Negative controls were treated with medium. Viability was measured through colorimetry, using an ELISA plate reader (Tecan, Männedorf, Switzerland) at 540 nm. All experiments were performed in triplicate. […] Inhibitory concentration (IC50) was calculated. The statistical difference between experimental groups was evaluated by nonparametric Kruskal–Wallis test, followed by Dunns post-test; the statistical significance of the treatments and time exposure within the experimental groups was tested using two-way ANOVA, followed by Bonferroni post-tests; results were considered significant for p < 0.05. […] Statistical package used for data analysis was Prism version 4.00 for Windows, GraphPad Software, San Diego, CA, USA, www.graphpad.com. For IC50 calculation of the cell viability in vitro, the AAT Bioquest was used.

[4] = tested on: BJ dermal fibroblasts; assay: Cell viability, MTS assay, BJ dermal fibroblasts; assay type: cell-based, human; conditions: for cell viability (effect in words): BJ, 24 h, Figure 4; for IC50: Homo sapiens, Fibroblast, BJ dermal fibroblasts, 24 h exposure, range 0.01–100 µM, MTS
Procedure: as §4

[5] = tested on: BJ dermal fibroblasts; assay: Oxidative damage, malondialdehyde (MDA) in cell lysates, BJ; assay type: cell-based, human; conditions: 6 µM, 24 h, vs untreated controls
Procedure: as §3, with “Oxidative stress-induced damage was assessed in vitro by malondialdehyde (MDA) measurement from cell lysates. […] Cell lysates were then prepared as described. The concentration of 6 μM was chosen to mimic the clinical scenario [47]. […] For” for “For”, “manufacturer's” for “manufacturer’s”

[6] = tested on: HepG2 hepatocarcinoma cells; assay: Oxidative damage, malondialdehyde (MDA) in cell lysates, HepG2; assay type: cell-based, human; conditions: HepG2, 6 µM, 24 h, vs untreated controls
Procedure: as §3, with “Oxidative stress-induced damage was assessed in vitro by malondialdehyde (MDA) measurement from cell lysates. […] Cell lysates were then prepared as described. The concentration of 6 μM was chosen to mimic the clinical scenario [47]. […] For” for “For”, “manufacturer's” for “manufacturer’s”

[7] = tested on: Candida albicans; parameters: method as in PMID 1799950; conditions: ICR mice, systemic Candida albicans infections, intraperitoneal; cited from earlier work
[8] = tested on: humans; conditions: 75 subjects, 500 mg daily for one year; cited from earlier work
[9] = Wistar rats, one oral dose 20 mg kg^−1 bw
Procedure: (§5) Regarding HPLC-MS Quantification, serum samples were processed according to the modified protocol described by Wang et al. [99]. According to this protocol, 0.5 mL of serum was extracted into 3 mL of ethyl acetate by shaking for 3 min, after which the mixture was centrifuged for 8 min at 4000 rpm. The organic layer, after being transferred to a clean tube, was evaporated at 37 °C under a stream of nitrogen. The residue was resuspended in 100 μL acetonitrile and then analyzed using a LC2010 Shimadzu (Shimadzu, Kyoto, Japan) high-performance liquid chromatograph, equipped with diode array (DAD) and quadrupole mass spectrometer (MS) detectors.
(§6) Chromatographic separation was performed on a Grace Alltima C18 column (100 × 3 mm, 3 μm), at a temperature of 40 °C, using acetonitrile-water mixture 1:1 (V/V) with 0.1% formic acid as the mobile phase. The elution was carried out isocratically with 0.4 mL min^−1 flow rate. The injected sample volume was 10 μL. The mass spectrometer parameters were the capillary voltage of 1.5 kV, desolvation temperature of 250 °C, and interface temperature of 200 °C.

[10] = tested on: Wistar rats; assay: Liver histopathology (HE stain); assay type: in vivo; conditions: oral 20 mg kg^−1 bw, 30 min, 24 h, 7 days
Procedure: Adult female Wistar rats, 3 months old (200 g body weight), were kept in standard cages type II, 5 animals/cage, in constant conditions of humidity (65%), temperature (21 °C), and day/night cycles of 12 h, fed with standard food (Cantacuzino Institute, Bucharest, Romania) and water ad libitum. […] […] Blood and liver samples were collected.
For the histopathological examination, the liver samples collected from the left lateral lobe and right medial lobe were fixed in 10% buffered neutral formalin, embedded in paraffin, cut at 4 µm thickness, and stained using the Hematoxylin–Eosin (H&E) staining method. The slides were examined under a BX51 Olympus microscope, and images were taken with an Olympus UC 30 digital camera (Olympus, Hamburg, Germany) and processed using the Olympus Stream Basic program.
as §2

[11] = in vivo; conditions: female, Wistar, rat, po, 20 mg/kg
Procedure: as §5, §6

[12] = parameters: method as in PMID 3767339; conditions: healthy humans, therapeutic oral dose of 200 mg KTZ; cited from earlier work
[13] = tested on: BALBc mice; conditions: mouse, in vivo
[14] = BALBc mice, after MEST, HE stain
[15] = BALBc mice, ear collected at R48 h, ELISA, vs control

Compound | histology of ear pinna [1, 14] | IL1α in treated ear tissue [2, 15] | IL1β in treated ear tissue [2, 15] | IL6 in treated ear tissue [2, 15] | cell viability (effect in words) [3] | IC50 [3] | cell viability (effect in words) [4] | IC50 [4] | malondialdehyde (MDA), marker for lipid peroxidation [5] | malondialdehyde (MDA), marker for lipid peroxidation [6] | other results
O=[N+]([O-])c1ccc(Cl)c([N+](=O)[O-])c1 [DNCB, dinitrochlorobenzene] | contact dermatitis | significant increase | significant increase | significant increase | – | – | – | – | – | – | –
O=C(O)/C=C/C(=O)O [FUM, trans-2-butenedioic acid] | – | – | – | – | minimal effect | 3.19 µM | minimal effect | 7.26 µM | smaller effect | slightly increased | histology of ear pinna ([1]; mouse, in vivo): No histological changes; IL1α in treated ear tissue ([2]; mouse, in vivo): decreased; IL1β in treated ear tissue ([2]; mouse, in vivo): decreased; IL6 in treated ear tissue ([2]; mouse, in vivo): increased; survival of infected mice [7]: prolonged survival and prevented one-fifth of deaths; adverse effects in humans [8]: no evidence of adverse effects
CC(=O)N1CCN(c2ccc(OCC3COC(Cn4ccnc4)(c4ccc(Cl)cc4Cl)O3)cc2)CC1 (stereo not drawn) [KTZ, cis-1-acetyl-4-[4-[[(2RS,4SR)-2-(2,4-dichlorophenyl)-2-(1H-imidazol-1-ylmethyl)-1,3-dioxolan-4-yl]methoxy]phenyl]piperazine] | No histological changes | decreased | decreased | increased | decreased | 7.48 µM | decreased | 7.45 µM | decreased | decreased | detection in plasma over time [9]: not detected after 6 h; liver histopathology [10]: normal hepatic architecture; AUC(0-t) [11]: 3820 ng·h/mL; Cmax ([11]; Cmax, Wistar rats, one oral dose 20 mg kg^−1 bw, serum): 5820 ± 700 ng/mL; plasma concentration [12]: 5.85 µM; epicutaneous sensitization, ear thickness [13]: did not induce any allergic reactions
